Test [1] has as its target T1, A2A adenosine receptor (hA2AR) (Homo sapiens, UniProt P29274).
T1 construct: expressed in transfected cells; host or cells: HEK293 (adherent, stably transfected)
Nature of the test: Radioligand binding affinity, adherent HEK293 cells stably transfected with hAR cDNA. As to conditions: normalized to NECA 10 μM. The procedure: (§1) The binding affinity of LJ-4378 and derivatives thereof to A2AAR and A3AR is as shown in the following [Table 1]. All binding affinity experiments were performed using adherent HEK293 cells stably transfected with cDNAs encoding appropriate hAR bonds, and were performed using 1 nM [3H]17, 10 nM [3H]18, or 0.2 nM [3H]16 as radioligands for A2A and A3AR, respectively. Values were normalized to a non-specific binder 5′-N-ethylcarboxamidoadenosine (NECA, 10 μM).

The target in test [2] is T2, A3 adenosine receptor (hA3AR) (Homo sapiens, UniProt P0DMS8).
T2 construct: expressed in transfected cells; host or cells: HEK293 (adherent, stably transfected)
T2 sequence (P0DMS8 1-318): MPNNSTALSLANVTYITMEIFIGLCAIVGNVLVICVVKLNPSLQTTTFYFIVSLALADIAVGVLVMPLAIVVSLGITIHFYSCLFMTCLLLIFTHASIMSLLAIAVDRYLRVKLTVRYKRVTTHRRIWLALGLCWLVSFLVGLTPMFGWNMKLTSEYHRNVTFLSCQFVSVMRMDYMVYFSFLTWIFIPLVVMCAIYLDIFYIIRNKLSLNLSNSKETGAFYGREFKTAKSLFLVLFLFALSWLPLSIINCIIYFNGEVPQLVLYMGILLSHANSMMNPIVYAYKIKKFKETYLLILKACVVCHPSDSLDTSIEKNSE
The test is described as above. To be noted: normalized to NECA 10 μM. Here is the method:
as §1

The test system of test [3] is brown adipocytes. Briefly: Immunoblot of PKA downstream proteins (P-HSL, P-CREB) in brown adipocytes. The class given is cell-based, mouse. To be noted: 0.1 μM, 24 hours, FIG. 3D. Here is the method:
(§2) Adipocyte precursor cells capable of differentiating into brown adipocytes were isolated from mouse brown adipose tissue. Cells were cultured in Dulbecco's modified Eagle's medium (Welgene, LM001-07) containing 10% fetal bovine serum (FBS, Gibco, 16000044) and 1% Penicillin Streptomycin (Welgene, LS202-02) at 37° C. in a humidified atmosphere with 5% CO2. When the cells reached about 100% confluency, the cells were exposed to a differentiation medium supplemented with 2.5 mM isobutyl methylxanthine (IBMX, Cayman, I5879), 0.125 mM indomethacin (Cayman, 70270), 1 μM dexamethasone (Cayman), 1 μg/mL insulin (Sigma, I9278), and 1 nM triiodothyronine (T3, Cayman, 6028) for 3 days for adipogenesis. Then, the cells were maintained in a growth medium containing 1 μg/mL insulin and 1 nM triiodothyronine (T3) for 3 days.
(§3) In the case of Western blots, the primary antibodies used for Western blots are summarized in [Table 2] above. An anti-rabbit horseradish peroxidase antibody (1:3000, Thermo Fisher, 31460) and an anti-mouse horseradish peroxidase antibody (1:3000, Jackson, 115-035-174) were used as secondary antibodies. All antibodies were diluted in a blocking buffer (5% skimmed milk or 5% bovine serum albumin in TBST). Western blot images were acquired using a Fusion Solo chemiluminescence imaging system (Vilber Lourmat) and analyzed with Evolution Capt software (version 17.03). NIH ImageJ software was used for quantification.
In general terms: In western blotting, separated proteins are transferred to a membrane and probed.

For test [4], the system named is brown adipocytes. Briefly: Lipolysis: glycerol and free fatty acid levels in conditioned medium. The test is classed as cell-based, mouse. As to conditions: 0.1 μM, 24 hours. The procedure:
as §2
The free fatty acid (FFA) levels in the medium were measured using an NEFA reagent (WAKO, 436-91693) according to the manufacturer's product protocol.
Glycerol and free fatty acid (FFA) levels in a medium were measured using a glycerol reagent (Sigma Aldrich, F6428) and a NEFA reagent (WAKO, 436-91693) according to the manufacturer's product protocols.

Test [5] has as its system brown adipocytes. Briefly: Immunoblot of mitochondrial proteins and UCP1 in brown adipocytes. The test is classed as cell-based, mouse. To be noted: 0.1 μM, 24 hours, FIG. 4D. The procedure: as §2, §3
For a further test, the system named is CIDEA reporter mice. Briefly: qPCR of brown adipocyte markers in brown adipose tissue. The class given is in vivo, mouse. To be noted: BAT, 1 mg kg-1/day, 10 days. The procedure: Mice were treated with vehicle (CTL), LJ-4378 (LJ, 1 mg kg-1/day), […] (CGS21680, 1 mg kg-1/day), or A3 antagonist (LJ-4433, 1 mg kg-1/day) for 10 days. (A-B) Representative bioluminescence in dorsal and lateral positions (n=3, mean±SEM, ** p<0.01, **** p<0.0001). (C) Representative ex vivo fluorescence image and quantification of fluorescence intensity of BAT and iWAT (n=3, mean±SEM, ** p<0.01, **** p<0.0001). (D) qPCR analysis of UCP1 and CIDEAM RNA expression levels of brown adipose tissue (BAT) (n=3, mean±SEM, * p<0.05, ** p<0.01, *** p<0.001).
qPCR analysis was performed to investigate the adenosine receptor expression levels in brown adipocytes differentiated from immortalized brown adipocyte precursor cells. Primers used for the qPCR analysis are listed in the following [Table 3].
(In general: In qPCR the cycle at which signal appears reflects the starting amount.)

Structures are written as SMILES.

T1 sequence (P29274 whole entry): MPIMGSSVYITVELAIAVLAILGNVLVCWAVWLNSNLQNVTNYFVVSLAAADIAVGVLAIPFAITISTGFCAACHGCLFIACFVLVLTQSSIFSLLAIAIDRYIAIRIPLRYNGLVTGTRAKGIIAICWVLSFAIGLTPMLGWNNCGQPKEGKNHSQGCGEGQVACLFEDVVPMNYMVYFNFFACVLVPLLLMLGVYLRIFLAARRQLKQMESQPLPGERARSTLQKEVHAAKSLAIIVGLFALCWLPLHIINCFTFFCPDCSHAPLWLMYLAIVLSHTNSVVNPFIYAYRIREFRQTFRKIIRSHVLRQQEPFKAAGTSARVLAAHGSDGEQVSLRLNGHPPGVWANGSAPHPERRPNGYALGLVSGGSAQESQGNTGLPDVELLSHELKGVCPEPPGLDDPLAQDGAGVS

In general, Ki refers to a measure of affinity in units of concentration, obtained from inhibition or displacement. A lower Ki goes with tighter binding. Regarding `CC#Cc1nc(NCc2cccc(F)c2)c2ncn([C@@H]3SC[C@@H](O)[C@H]3O)c2n1` [Compound 9b, (2R,3R,4S)-2-(6-((3-fluorobenzyl)amino)-2-(prop-1-yn-1-yl)-9H-purin-9-yl)tetrahydro thiophene-3,4-diol], the Ki in test [1] is 772 nM; in test [2], 30.5 nM.

In the case of `CCC#Cc1nc(NCc2cccc(F)c2)c2ncn([C@@H]3SC[C@@H](O)[C@H]3O)c2n1` [Compound 9g, (2R,3R,4S)-2-(2-(but-1-yn-1-yl)-6-((3-fluorobenzyl)amino)-9H-purin-9-yl)tetrahydrothiophene-3,4-diol], the Ki in test [1] stood at 914 nM; in test [2], 9.5 nM.

For the compound `CCC#Cc1nc(NCc2cccc(Br)c2)c2ncn([C@@H]3SC[C@@H](O)[C@H]3O)c2n1` [Compound 9i, (2R,3R,4S)-2-(6-((3-bromobenzyl)amino)-2-(but-1-yn-1-yl)-9H-purin-9-yl)tetrahydrothiophene-3,4-diol], the Ki in test [1] was determined as 113 nM; in test [2], 0.293 nM.

Regarding `CCC#Cc1nc(NCc2cccc(I)c2)c2ncn([C@@H]3SC[C@@H](O)[C@H]3O)c2n1` [Compound 9j, (2R,3R,4S)-2-(2-(but-1-yn-1-yl)-6-((3-iodobenzyl)amino)-9H-purin-9-yl)tetrahydrothiophene-3,4-diol], the Ki in test [1] was found to be 58 nM; in test [2], 8.6 nM.

For the compound `CCC#Cc1nc(N)c2ncn([C@@H]3SC[C@@H](O)[C@H]3O)c2n1` [Compound 9f, (2R,3R,4S)-2-(6-amino-2-(but-1-yn-1-yl)-9H-purin-9-yl)tetrahydrothiophene-3,4-diol], the Ki was 23.9 nM in test [1] and 67.3 nM in test [2].

With `CC#Cc1nc(NCc2cccc(I)c2)c2ncn([C@@H]3SC[C@@H](O)[C@H]3O)c2n1` [Compound 9e, (2R,3R,4S)-2-(6-((3-iodobenzyl)amino)-2-(prop-1-yn-1-yl)-9H-purin-9-yl)tetrahydro thiophene-3,4-diol], the Ki in test [1] turned out to be 121 nM; in test [2] it was 20.1 nM.

As for `CC#Cc1nc(N)c2ncn([C@@H]3SC[C@@H](O)[C@H]3O)c2n1` [Compound 9a, (2R,3R,4S)-2-(6-amino-2-(prop-1-yn-1-yl)-9H-purin-9-yl)tetrahydrothiophene-3,4-diol], the Ki in test [1] turned out to be 117 nM; in test [2], 64.7 nM.

As to `CCC#Cc1nc(NCc2cccc(Cl)c2)c2ncn([C@@H]3SC[C@@H](O)[C@H]3O)c2n1` [Compound 9h, (2R,3R,4S)-2-(2-(but-1-yn-1-yl)-6-((3-chlorobenzyl)amino)-9H-purin-9-yl)tetrahydrothiophene-3,4-diol], the Ki in test [1] was 239 nM; in test [2] it was 3.8 nM.

Regarding `CCNC(=O)[C@H]1O[C@@H](n2cnc3c(N)nc(NCCc4ccc(CCC(=O)O)cc4)nc32)[C@H](O)[C@@H]1O` [CGS21680, reference compound], in the test on brown adipocytes [3], the “P-CREB, fold increase” value amounted to 2.00±0.11 fold and the “P-HSL, fold increase” value amounted to 1.54±0.05 fold. Also, in the test with brown adipocytes [4] (FIG. 3B), the “glycerol level in conditioned medium, fold change” value stood at 1.51±0.08 fold. The “FFA level in conditioned medium, fold change” value in the test on brown adipocytes [4] (FIG. 3C) turned out to be 1.29±0.09 fold. Further, in the test with brown adipocytes [5], the “COXIV, fold increase” value is reported as “increased”; the “MCAD, fold increase” value was “increased”; the “UCP1, fold increase” value is reported as “increased”. In the test on CIDEA reporter mice, the “Cidea mRNA level, fold increase” value was found to be 1.29±0.12 fold and the “Ucp1 mRNA level, fold increase” value came out at 1.72±0.17 fold.

`CC#Cc1nc(NCc2cccc(Cl)c2)c2ncn([C@@H]3SC[C@@H](O)[C@H]3O)c2n1` [Compound 9c, (2R,3R,4S)-2-(6-((3-chlorobenzyl)amino)-2-(prop-1-yn-1-yl)-9H-purin-9-yl)tetrahydro thiophene-3,4-diol]: the Ki in test [1] is 221 nM; in test [2], 1.5 nM.

Turning to `CC#Cc1nc(NCc2cccc(Br)c2)c2ncn([C@@H]3SC[C@@H](O)[C@H]3O)c2n1` [Compound 9d, (2R,3R,4S)-2-(6-((3-bromobenzyl)amino)-2-(prop-1-yn-1-yl)-9H-purin-9-yl)tetrahydro thiophene-3,4-diol], the inhibition constant (Ki) in test [1] worked out at 469 nM; in test [2] it was 11.1 nM.
